The nature of experiment [1]: Inhibition of HIV1 3B Y181C mutant infected in human MT2 cells assessed as reduction in virus-induced cytopathogenicity after 3 days by BrightGlo luciferase reporter gene assay. For orientation: Protection from cytopathic effect is a common read-out in antiviral testing.
The nature of experiment [2]: Inhibition of HIV1 reverse transcriptase Y181C/K103N double mutant infected in human MT4 cells assessed as reduction in virus-induced cytopathogenicity.

This note sets out measurements from BindingDB's records for doi:10.1016/j.ejmech.2019.07.019 (Isf College of Pharmacy, 2019).

For orientation: IC50 means the concentration that gives 50% inhibition. As for `CCCCC(O)(c1c(NC(=O)OCC)[nH]c2ccc(Br)cc12)C(F)(F)F` (configuration not stated), the IC50 in experiment [1] worked out at 1.93 µM. As to `COP(=O)(c1cc(C)cc(/C=C/C#N)c1)c1c(C(N)=O)[nH]c2ccc(Cl)cc12` (configuration not stated) [IDX899], the IC50 in experiment [2] is 11 µM.
